Test results from patent publication US20090204336A1, “PDZ-Domain Modulators” (Forschungsverbund Berlin e. V., priority 2005, published 2009).
Entries after “also recorded” stand apart in the source; their conditions may differ.

How the values were obtained:
[1] = target: T1, PDZ-domain of the protein AF6 (Homo sapiens, UniProt P55196); assay: 15N-HSQC NMR binding assay (chemical shift comparison with and without test ligand); conditions: for binding site occupation from backbone amide chemical shifts, compared with compound 1: 8 to 10-fold ligand excess, FIG. 8; for binding to the PDZ-domain of the protein AF6 (binding / non-binding): 8 to 10-fold molar excess of test ligand, 50 μM protein; for binding of compound with singly bound R3 compared with the doubly bound equivalent: singly vs doubly bound residue R3
T1 construct: The ubiquitarily 15N marked PDZ-domains of the proteins AF6; made in house
T1 sequence (P55196 1007-1093 limits assumed): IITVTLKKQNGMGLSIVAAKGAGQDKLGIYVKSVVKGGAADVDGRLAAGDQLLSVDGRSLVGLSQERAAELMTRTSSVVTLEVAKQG
Description: The chemical shifts are split up into the 2 categories “large (bold italics)” and “small (normal letters)”. From the shown amino acid residues, the binding site of a compound on the protein can be determined by color-highlighting the backbone amide atoms of this amino acid residues in the 3D protein structure of Table 1 and creating the largest common cut set of all these atoms on the protein surface.

[2] = target: T2, PDZ-domain of AF6 (Homo sapiens, UniProt P55196); assay: Kd determination by 15N-HSQC NMR titration; type: binding; conditions: macroscopic (apparent) Kd ± statistical standard deviation of curve adaptation; 50 μM 15N protein, pH 6.5, 300 K
T2 construct: The ubiquitarily 15N marked PDZ-domains of the proteins AF6; made in house
T2 sequence (P55196 1007-1093 limits assumed): T1 sequence (P55196 1007-1093 limits assumed)
Description: (§1) The ubiquitarily 15N marked PDZ-domains of the proteins AF6 [Boisguerin, P. et al., Chem. Biol. 11:449-459 (2004)] and Syntrophin [Schultz, J. et al., Nat Struct Biol., 5(1):19-24 (1998)] were prepared as described in the publications. For the NMR assay 50 μM 15N marked protein are mixed in a buffer of 20 mM Na phosphate pH 6.5, 50 mM NaCl and 10% d6-DMSO with a 8 to 10-fold molar excess of test ligand and a 15N-HSQC NMR spectrum is recorded at a temperature of 300 K on a Bruker DRX 600 MHz NMR spectrometer. Secondly, an identical comparison spectrum of protein in absence of test ligand is recorded. The NMR spectra are processed with the aid of the software XWIN-NMR and compared with each other with the aid of the software Sparky. […] Exemplarily is shown such a comparison of spectra for the PDZ-domain of AF6 in FIG. 7A and for the PDZ-domain of Syntrophin in FIG. 7B.
(§2) For the determination of equilibrium dissociation constants (in short: Kd values), a test ligand is added step-wise in increasing concentrations to 50 μM protein solution, and for each concentration step a 15N-HSQC NMR spectrum is recorded under the same conditions as described above. The average chemical shift of a resonance, d, is calculated according to the following equation from the NMR raw data: […]
(§3) wherein ΔH is the shift in ppm units along the 1H resonance axis, and ΔN is the shift in ppm units along the 15N resonance axis. The average shift, d, is drawn as a function of the concentration of the test ligand, and a binding curve results, to which is adapted the following mathematical equation:
(§4) wherein Lo is the total concentration of ligands, Po is the total concentration of protein and Kd is the Kd value. This equation describes the law of mass action of a reaction “protein+ligand=complex”.
(§5) With the aid of a software such as e.g. “Origin 5.0”, the adaptation is optimized in a non-linear manner, thereby providing for each investigated resonance a microscopic Kd value. From the mean value of all relevant microscopic Kd values, a macroscopic Kd value is calculated. In Table 2, the macroscopic Kd values including the statistical standard deviation for the binding of some test ligands to the PDZ-domains of AF6 and of Syntrophin are shown.
(§6) The number behind the ± symbol indicates the statistical standard deviation of a mathematical curve adaptation to the chemical binding equation “protein+ligand=complex”.

[3] = target: T3, PDZ-domain of Syntrophin (Mus musculus, UniProt Q61234); assay: Kd determination by 15N-HSQC NMR titration; type: binding; conditions: macroscopic (apparent) Kd ± statistical standard deviation of curve adaptation; 50 μM 15N protein, pH 6.5, 300 K
T3 construct: made in house
T3 sequence (Q61234 81-164 limits assumed): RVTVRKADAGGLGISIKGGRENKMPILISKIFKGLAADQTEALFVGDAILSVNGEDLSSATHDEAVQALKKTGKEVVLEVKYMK
Description: as §1, §2, §3, §4, §5, §6

CC(C)C=C1SC(=O)NC1=O [Compound 21]
binding site occupation from backbone amide chemical shifts, compared with compound 1 [1]: missing occupation of the partial binding site of the trifluoromethylphenyl residue | binding to the PDZ-domain of the protein AF6 (binding / non-binding) [1]: show a binding

O=c1[nH]c2c(Cl)c(Cl)c(Cl)cc2o1 [II]
Kd [2]: 480 ± 33 µM | Kd [3]: 398 ± 32 µM

O=C(O)c1cc2cc(Br)ccc2c(Br)c1O [Compound 41]
Kd [2]: 419 ± 30 µM

CC(c1ccc(C(F)(F)F)cc1)C1SC(=S)NC1=O (centres unmarked) [Compound 6]
binding to the PDZ-domain of the protein AF6 (binding / non-binding) [1]: particularly strong activity

NC1=NC(=O)C(=Cc2ccsc2)S1 [Compound 38]
binding to the PDZ-domain of the protein AF6 (binding / non-binding) [1]: non-binding

CN1C(=O)C(=Cc2ccc(C(F)(F)F)cc2)SC1=S [Compound 31]
binding to the PDZ-domain of the protein AF6 (binding / non-binding) [1]: non-binding

O=C1NC(=S)SC1=Cc1c[nH]c2ccccc12 [Compound 29]
binding to the PDZ-domain of the protein AF6 (binding / non-binding) [1]: non-binding; also recorded: do not show any binding

O=C1NC(=O)C(Cc2ccc(C(F)(F)F)cc2)S1 (centres unmarked) [Compound 7]
binding to the PDZ-domain of the protein AF6 (binding / non-binding) [1]: particularly strong activity | Kd [2]: 280 ± 22 µM | Kd [3]: 330 ± 17 µM

CN1C(=O)C(=Cc2cccc(C(F)(F)F)c2)SC1=S [Compound 32]
binding to the PDZ-domain of the protein AF6 (binding / non-binding) [1]: non-binding

O=C1NC(=S)SC1Cc1ccc(Br)cc1 (centres unmarked) [Compound 2]
binding to the PDZ-domain of the protein AF6 (binding / non-binding) [1]: particularly strong activity

O=C1NC(=S)SC1=Cc1cccc(C(F)(F)F)c1 [Compound 14]
binding to the PDZ-domain of the protein AF6 (binding / non-binding) [1]: binding

O=C1NC(=S)SC1Cc1ccoc1 (centres unmarked) [Compound 4]
binding to the PDZ-domain of the protein AF6 (binding / non-binding) [1]: show a binding

O=C1NC(=S)SC1Cc1ccccc1 (centres unmarked) [Compound 3]
binding to the PDZ-domain of the protein AF6 (binding / non-binding) [1]: show a binding

O=C1NC(=S)SC1=Cc1ccsc1 [Compound 13]
binding to the PDZ-domain of the protein AF6 (binding / non-binding) [1]: binding

O=C1NC(=S)SC1=Cc1ccc(-c2ccccc2)cc1 [Compound 30]
binding to the PDZ-domain of the protein AF6 (binding / non-binding) [1]: non-binding; also recorded: do not show any binding

O=C1NC(=S)SC1Cc1ccsc1 (centres unmarked) [Compound 5]
binding to the PDZ-domain of the protein AF6 (binding / non-binding) [1]: show a binding

O=C1NC(=S)SC1Cc1cccc(C(F)(F)F)c1 (centres unmarked) [Compound 26]
binding of compound with singly bound R3 compared with the doubly bound equivalent [1]: weaker binding

CN(C)CCN=C1NC(=O)C(=Cc2ccc(C(F)(F)F)cc2)S1 [Compound 39]
binding to the PDZ-domain of the protein AF6 (binding / non-binding) [1]: non-binding

O=C(O)c1cccc([N+](=O)[O-])c1O [Compound 46]
binding site occupation from backbone amide chemical shifts, compared with compound 1 [1]: does not or only insufficiently occupy the binding sites L25 to V28 and S75 to T91

O=C1NC(=S)SC1=Cc1ccc(C(F)(F)F)cc1 [Compound 9]
binding to the PDZ-domain of the protein AF6 (binding / non-binding) [1]: binding; also recorded: particularly strong activity

O=C1NC(=S)SC1Cc1ccc(C(F)(F)F)cc1 (centres unmarked) [Compound 1]
binding to the PDZ-domain of the protein AF6 (binding / non-binding) [1]: show a binding; also recorded: particularly strong activity | binding of compound with singly bound R3 compared with the doubly bound equivalent [1]: stronger binding | Kd [2]: 101 µM | Kd [3]: 239 ± 12 µM

O=C1NC(=NCCCc2ccccc2)SC1=Cc1ccc(C(F)(F)F)cc1 [Compound 40]
binding to the PDZ-domain of the protein AF6 (binding / non-binding) [1]: non-binding
